Target: human DGAT2 (hDGAT2) (Homo sapiens (Human), UniProt Q96PD7)
Assay: DGAT2 Enzymatic Activity Assay
Assay type: biochemical
Settings: hDGAT2 Sf-9 membrane prep, 13C18-triolein product by LC/MS/MS
Procedure: Sf-9 insect cells were maintained in Grace's insect cell culture medium with 10% heated-inactivated fetal bovine serum, 1% Pluronic F-68 and 0.14 μg/ml Kanamycine sulfate at 27° C. in a shaker incubator. After infection with untagged baculovirus expressing human DGAT2 (hDGAT2) at multiplicity of infection (MOI) 3 for 48 hours, cells were harvested. Cell pellets were suspended in buffer containing 10 mM Tris-HCl pH 7.5, 1 mM EDTA, 250 mM sucrose and Complete Protease Inhibitor Cocktail (Sigma Aldrich), and sonicated on ice. Cell debris were removed by centrifugation at 2000×g for 15 minutes. Membrane fractions were isolated by ultracentrifugation (100,000×g), resuspended in the same buffer, and frozen (−80° C.) for later use. The protein concentration was determined with the Pierce™ BCA Protein Assay Kit (Thermo Fisher Scientific).
LC/MS/MS analyses were performed using Thermal Fisher's LX4-TSQ Vantage system. This system consists of an Agilent binary high-performance liquid chromatography (HPLC) pump and a TSQ Vantage triple quadrupole MS/MS instrument. For each sample, 2 μL samples from the top organic layer of in-plate liquid-liquid extraction were injected onto a Thermo Betabasic C4 column (2.1 mm×20 mm, 5 μm particle size). The samples were then eluted using the following conditions; mobile phase: Isopropanol: acetonitrile/10 mM ammonium formate=50/35/15 (v/v/v), flow rate: 0.8 mL/min, temperature: 25° C. Data was acquired in positive mode using a heated electrospray ionization (HESI) interface. […] The peak area was integrated by Xcalibur Quan software. The ratio between the ^13C18triolein generated in the reaction and spiked in internal standard ^13C21-triolein was used to generate percentage inhibition and IC50 values. Compound percentage inhibition was calculated by the following formula: Inhibition %=1−[(compound response−low control)/(high control−low control)]×100%.
DGAT2 activity was determined by measuring the amount of enzymatic product ^13C18-triolein (^13C-1,2,3-Tri(cis-9-octadecenoyl)glycerol) using the membrane prep mentioned above. The assay was carried out in ABgene 384-well assay plates in a final volume of 25 μL at rt.

[1] = 25 μM diolein, 5 μM 13C oleoyl-CoA

Chain of human DGAT2 (hDGAT2) (Q96PD7 whole entry): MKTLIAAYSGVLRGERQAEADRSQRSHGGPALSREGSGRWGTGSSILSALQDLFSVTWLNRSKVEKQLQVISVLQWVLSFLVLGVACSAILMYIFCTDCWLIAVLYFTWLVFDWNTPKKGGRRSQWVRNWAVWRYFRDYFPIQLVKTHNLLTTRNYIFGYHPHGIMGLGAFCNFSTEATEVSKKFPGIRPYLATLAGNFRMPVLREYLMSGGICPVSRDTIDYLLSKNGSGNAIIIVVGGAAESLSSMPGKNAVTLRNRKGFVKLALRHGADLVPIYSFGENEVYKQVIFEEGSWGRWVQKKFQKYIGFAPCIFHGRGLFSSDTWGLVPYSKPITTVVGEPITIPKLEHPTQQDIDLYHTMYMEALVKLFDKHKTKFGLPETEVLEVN

CC(C)n1nc(-c2cccc(C3(O)CCC3)c2)c2c1C[C@H](C(=O)NC1(C)CC(F)(F)C1)CC2 [Example 103, (R)-N-(3,3-difluoro-1-methylcyclobutyl)-3-(3-(1-hydroxycyclobutyl)phenyl)-1-isopropyl-4,5,6,7-tetrahydro-1H-indazole-6-carboxamide]
IC50 [1]: > 10000 nM

CCOC(=O)N1CCC(C)(NC(=O)[C@@H]2CCc3c(-c4cc(OC(F)F)ccc4F)nn(C(C)C)c3C2)C1 (stereo partly drawn) [Example 59, ethyl 3-((R)-3-(5-(difluoromethoxy)-2-fluorophenyl)-1-isopropyl-4,5,6,7-tetrahydro-1H-indazole-6-carboxamido)-3-methylpyrrolidine-1-carboxylate]
IC50 [1]: 61 nM

CC(C)n1nc(-c2cc(OCC(F)(F)F)ncc2F)c2c1C[C@H](C(=O)N[C@@]1(C)CCS(=O)(=O)C1)CC2 [Example 44, (R)-3-(5-fluoro-2-(2,2,2-trifluoroethoxy)pyridin-4-yl)-1-isopropyl-N-((S)-3-methyl-1,1-dioxidotetrahydrothiophen-3-yl)-4,5,6,7-tetrahydro-1H-indazole-6-carboxamide]
IC50 [1]: 5.3 nM

CC(C)n1nc(-c2cccc(C3CC3)c2)c2c1C[C@H](C(=O)NC1(C)CS(=O)(=O)C1)CO2 [Example 125, (S)-3-(3-cyclopropylphenyl)-1-isopropyl-N-(3-methyl-1,1-dioxidothietan-3-yl)-1,5,6,7-tetrahydropyrano[3,2-c]pyrazole-6-carboxamide]
IC50 [1]: 22.2 nM

CC(C)n1nc(-c2cc(C#N)ccc2F)c2c1C[C@H](C(=O)NC1(C)CS(=O)(=O)C1)CC2 [Example 101, (R)-3-(5-cyano-2-fluorophenyl)-1-isopropyl-N-(3-methyl-1,1-dioxidothietan-3-yl)-4,5,6,7-tetrahydro-1H-indazole-6-carboxamide]
IC50 [1]: > 10000 nM

O=C(N[C@@H]1CCC[C@H]1N1CCOCC1)C1CCc2c(-c3cccc(OC(F)F)c3)nn(-c3ccc(F)cn3)c2C1 (stereo partly drawn) [Example 16, 3-(3-(difluoromethoxy)phenyl)-1-(5-fluoropyridin-2-yl)-N-((1R,2R)-2-morpholinocyclopentyl)-4,5,6,7-tetrahydro-1H-indazole-6-carboxamide]
IC50 [1]: 66.9 nM

CC(n1nc(-c2cc(OCC(F)(F)F)ncc2F)c2c1C[C@H](C(=O)NC1(C#N)CCS(=O)(=O)CC1)CC2)C(C)(C)O (single isomer, unassigned) [Example 113b]
IC50 [1]: 70.3 nM

CC(n1nc(-c2cc(OCC(F)(F)F)ncc2F)c2c1C[C@H](C(=O)NC1(C#N)CCS(=O)(=O)CC1)CC2)C(C)(C)O (single isomer, unassigned) [Example 113a]
IC50 [1]: 27.8 nM

CCOc1cc(-c2nn(C(C)C(F)(F)F)c3c2CC[C@@H](C(=O)NC2(C)CCS(=O)(=O)CC2)C3)c(F)cn1 (single isomer, unassigned) [Example 53a]
IC50 [1]: 162 nM

CC(C)n1nc(-c2cc(OC(F)F)ncc2F)c2c1C[C@H](C(=O)N[C@@]1(C)CCS(=O)(=O)C1)CC2 [Example 41, (R)-3-(2-(difluoromethoxy)-5-fluoropyridin-4-yl)-1-isopropyl-N-((S)-3-methyl-1,1-dioxidotetrahydrothiophen-3-yl)-4,5,6,7-tetrahydro-1H-indazole-6-carboxamide]
IC50 [1]: 139 nM

CC(C)n1nc(-c2cccc(C3(C#N)CC3)c2)c2c1C[C@H](C(=O)NC1(C)CS(=O)(=O)C1)CC2 [Example 91, (R)-3-(3-(1-cyanocyclopropyl)phenyl)-1-isopropyl-N-(3-methyl-1,1-dioxidothietan-3-yl)-4,5,6,7-tetrahydro-1H-indazole-6-carboxamide]
IC50 [1]: > 10000 nM

CC(C)n1nc(-c2cc(OC(F)F)ccc2F)c2c1C[C@H](C(=O)NC1(C)CS(=O)(=O)C1)OC2 [Example 127, (R)-3-(5-(difluoromethoxy)-2-fluorophenyl)-1-isopropyl-N-(3-methyl-1,1-dioxidothietan-3-yl)-1,4,6,7-tetrahydropyrano[4,3-c]pyrazole-6-carboxamide]
IC50 [1]: 343 nM

CC(C(F)F)n1nc(-c2cc(OC(F)F)ccc2F)c2c1C[C@H](C(=O)NC1(C)CCS(=O)(=O)CC1)CC2 (single isomer, unassigned) [Example 49a]
IC50 [1]: 32.1 nM

CC(C)n1nc(-c2cc(OCC(F)(F)F)ncc2F)c2c1C[C@H](C(=O)NC1(C)CS(=O)(=O)C1)CC2 [Example 43, (R)-3-(5-fluoro-2-(2,2,2-trifluoroethoxy)pyridin-4-yl)-1-isopropyl-N-(3-methyl-1,1-dioxidothietan-3-yl)-4,5,6,7-tetrahydro-1H-indazole-6-carboxamide]
IC50 [1]: 14.1 nM

CC(C(F)F)n1nc(-c2cc(OC(F)F)ccc2F)c2c1C[C@H](C(=O)NC1(C)CS(=O)(=O)C1)CC2 (single isomer, unassigned) [Example 48a]
IC50 [1]: 90.3 nM

O=C(NC1(CO)CCC(F)(F)C1)[C@@H]1CCc2c(-c3cccc(OC(F)F)c3)nn(-c3ccc(F)cn3)c2C1 (single isomer, unassigned) [Example 8b]
IC50 [1]: 35 nM

CC(C)n1nc(-c2cccc(OCC#N)c2)c2c1C[C@H](C(=O)NC1(C)CS(=O)(=O)C1)CC2 [Example 96, (R)-3-(3-(cyanomethoxy)phenyl)-1-isopropyl-N-(3-methyl-1,1-dioxidothietan-3-yl)-4,5,6,7-tetrahydro-1H-indazole-6-carboxamide]
IC50 [1]: > 10000 nM

C[C@]1(NC(=O)[C@@H]2CCc3c(-c4cncc(OC(F)F)n4)nn(-c4ccc(F)cn4)c3C2)CCS(=O)(=O)C1 [Example 19, (R)-3-(6-(difluoromethoxy)pyrazin-2-yl)-1-(5-fluoropyridin-2-yl)-N-((S)-3-methyl-1,1-dioxidotetrahydrothiophen-3-yl)-4,5,6,7-tetrahydro-1H-indazole-6-carboxamide]
IC50 [1]: > 10000 nM

CCOc1cc(-c2nn(C(C)C)c3c2CC[C@@H](C(=O)NC2(C)CCS(=O)(=O)CC2)C3)c(Cl)cn1 [Example 39, (R)-3-(5-chloro-2-ethoxypyridin-4-yl)-1-isopropyl-N-(4-methyl-1,1-dioxidotetrahydro-2H-thiopyran-4-yl)-4,5,6,7-tetrahydro-1H-indazole-6-carboxamide]
IC50 [1]: 7.7 nM

[2H]C([2H])([2H])C([2H])([2H])Oc1cc(-c2nn(C(C)C)c3c2CC[C@@H](C(=O)NC2(C)CCS(=O)(=O)CC2)C3)c(F)cn1 [Example 50, (R)-3-(2-(ethoxy-d5)-5-fluoropyridin-4-yl)-1-isopropyl-N-(4-methyl-1,1-dioxidotetrahydro-2H-thiopyran-4-yl)-4,5,6,7-tetrahydro-1H-indazole-6-carboxamide]
IC50 [1]: 51 nM

N#CC1(NC(=O)[C@@H]2CCc3c(-c4cncc(OC(F)F)c4)nn(-c4ccc(F)cn4)c3C2)CCOC1 (single isomer, unassigned) [Example 15a]
IC50 [1]: 17.4 nM

C[C@]1(NC(=O)[C@@H]2CCc3c(-c4cccc(OC(F)F)c4)nn(C(=O)C4CCOCC4)c3C2)CCS(=O)(=O)C1 [Example 75, (R)-3-(3-(difluoromethoxy)phenyl)-N-((S)-3-methyl-1,1-dioxidotetrahydrothiophen-3-yl)-1-(tetrahydro-2H-pyran-4-carbonyl)-4,5,6,7-tetrahydro-1H-indazole-6-carboxamide]
IC50 [1]: > 10000 nM

CC1(NC(=O)C2COc3c(-c4cccc(OC(F)F)c4)nn(-c4ccc(F)cn4)c3C2)CCS(=O)(=O)C1 (stereo not drawn) [Example 118, 3-(3-(difluoromethoxy)phenyl)-1-(5-fluoropyridin-2-yl)-N-(3-methyl-1,1-dioxidotetrahydrothiophen-3-yl)-1,5,6,7-tetrahydropyrano[3,2-c]pyrazole-6-carboxamide]
IC50 (unit given as nm): 0.44 nM

CC(C1CC1)n1nc(-c2cc(OC(F)F)ccc2F)c2c1C[C@H](C(=O)NC1(C)CS(=O)(=O)C1)CC2 (single isomer, unassigned) [Example 58b]
IC50 [1]: 2.5 nM

CC(c1nccs1)n1nc(-c2cc(OC(F)F)ccc2F)c2c1C[C@H](C(=O)NC1(C)CS(=O)(=O)C1)CC2 (stereo partly drawn) [Example 80, (6R)-3-(5-(difluoromethoxy)-2-fluorophenyl)-N-(3-methyl-1,1-dioxidothietan-3-yl)-1-(1-(thiazol-2-yl)ethyl)-4,5,6,7-tetrahydro-1H-indazole-6-carboxamide]
IC50 [1]: 174 nM

CC(C)n1nc(-c2cccc(OC(F)F)c2)c2c1C[C@H](C(=O)NCc1cccnc1)CC2 [Example 62, (R)-3-(3-(difluoromethoxy)phenyl)-1-isopropyl-N-(pyridin-3-ylmethyl)-4,5,6,7-tetrahydro-1H-indazole-6-carboxamide]
IC50 [1]: 8190 nM

CC(C)n1nc(-c2cccc(OC(F)F)c2)c2c1CC(C(=O)NC1(C)CS(=O)(=O)C1)OC2 (single isomer, unassigned) [EX-134b, 3-(3-(difluoromethoxy)phenyl)-1-isopropyl-N-(3-methyl-1,1-dioxidothietan-3-yl)-1,4,6,7-tetrahydropyrano[4,3-c]pyrazole-6-carboxamide]
IC50 [1]: 7610 nM

From patent publication US20240140938A1, “PREPARATION OF TETRAHYDROINDAZOLE DERIVATIVES AS NOVEL DIACYLGLYCERIDE O-ACYLTRANSFERASE 2 INHIBITORS” (MERCK SHARP & DOHME LLC, priority 2020, published 2024)
